Legend:
ERα = molecular target: T1, ERα (Homo sapiens, UniProt P03372); test: Competition with [3H]-17β-estradiol for ERα ligand binding domain; conditions: crude E. coli lysate expressing human ERα LBD (D, E, & F); 2 nM [3H]-17β-estradiol; 5-15 hours at room temperature
T1 construct: made in house; host or cells: E. coli
T1 sequence (P03372 311-547 limits assumed): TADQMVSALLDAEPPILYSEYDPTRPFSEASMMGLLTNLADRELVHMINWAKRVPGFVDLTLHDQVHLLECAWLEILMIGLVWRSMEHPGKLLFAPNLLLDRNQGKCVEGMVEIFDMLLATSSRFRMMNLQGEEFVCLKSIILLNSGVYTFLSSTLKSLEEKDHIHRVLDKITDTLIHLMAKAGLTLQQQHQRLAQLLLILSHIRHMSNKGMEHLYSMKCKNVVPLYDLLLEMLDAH
Protocol: (§1) Representative examples of the invention were evaluated for their ability to compete with 17β-estradiol for both ERα and ERβ. This test procedure provides the methodology for one to determine whether a particular compound binds to the estrogen receptor (and is therefore “estrogenic”) and whether there is selectivity for ERα or ERβ. […] 17β-estradiol is included as a standard reference for compalison. The procedure used is briefly described below. A crude lysate of E. coli expressing the estrogen receptor ligand binding domains (D, E, & F) of human ERα or ERβ was prepared. Both receptors and compounds were diluted in 1× Dulbecco's PBS (DPBS) supplemented with 1 mM EDTA. Using a high binding masked microtiter plate, 100 uL of receptor (1 uG/well) was combined with 2 nM [^3H]-17β-estradiol and various concentrations of compound. After between 5 and 15 hours at room temperature, the plates were washed with DPBS/1 mM EDTA and bound radioactivity determined by liquid scintillation counting.

ERβ = molecular target: T2, ERβ (Homo sapiens, UniProt Q92731); test: Competition with [3H]-17β-estradiol for ERβ ligand binding domain; conditions: for IC50: crude E. coli lysate expressing human ERβ LBD (D, E, & F), 2 nM [3H]-17β-estradiol, 5-15 hours at room temperature; for α/β: receptor selectivity, ratio ERα IC50 / ERβ IC50
T2 construct: made in house; host or cells: E. coli
Protocol: as §1

T2 sequence (Q92731 264-498 limits assumed): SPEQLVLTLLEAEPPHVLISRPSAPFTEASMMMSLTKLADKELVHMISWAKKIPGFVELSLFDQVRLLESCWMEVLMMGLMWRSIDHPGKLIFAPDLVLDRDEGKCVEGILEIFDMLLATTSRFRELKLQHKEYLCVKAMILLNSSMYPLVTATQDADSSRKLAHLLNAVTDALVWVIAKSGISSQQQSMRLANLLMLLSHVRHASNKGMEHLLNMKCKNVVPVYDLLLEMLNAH

IC50 (ERα) [nM] | IC50 (ERβ) [nM] | α/β (ERβ) | SMILES
213 | 4.6 | 46 | Oc1ccc(-c2cc(Cl)c3cc(O)ccc3n2)cc1 [Cpd 5a, 4-Chloro-2-(4-hydroxyphenyl)quinolin-6-ol]
246 | – | – | Oc1ccc2nc(-c3ccc(O)c(F)c3)cc(Cl)c2c1 [Cpd 5b, 4-Chloro-2-(3-fluoro-4-hydroxyphenyl)quinolin-6-ol]
283 | 3.4 | – | Oc1ccc2nc(-c3ccc(O)c(F)c3)cc(Br)c2c1 [Cpd 6b, 4-Bromo-2-(3-fluoro-4-hydroxyphenyl)quinolin-6-ol]
976 | 42 | 23 | Oc1ccc2nc(-c3cc(F)c(O)c(F)c3)cc(Br)c2c1 [Cpd 6c, 4-Bromo-2-(3,5-difluoro-4-hydroxyphenyl)quinolin-6-ol]
103 | 2.4 | 43 | Oc1ccc(-c2cc(I)c3cc(O)ccc3n2)cc1 [Cpd 8a, 2-(4-Hydroxyphenyl)-4-iodoquinolin-6-ol]
365 | 5 | 73 | Oc1ccc2nc(-c3ccc(O)c(F)c3)cc(I)c2c1 [Cpd 8b, 2-(3-Fluoro-4-hydroxyphenyl)-4-iodoquinolin-6-ol]
458 | 37 | 12 | C=Cc1cc(-c2ccc(O)c(F)c2)nc2ccc(O)cc12 [Cpd 11b, 2-(3-Fluoro-4-hydroxyphenyl)-4-vinylquinolin-6-ol]
837 | 61 | 14 | CCc1cc(-c2ccc(O)cc2)nc2ccc(O)cc12 [Cpd 12a, 4-Ethyl-2-(4-hydroxyphenyl)quinolin-6-ol]
1030 | 40 | 26 | CCc1cc(-c2ccc(O)c(F)c2)nc2ccc(O)cc12 [Cpd 12b, 4-Ethyl-2-(3-fluoro-4-hydroxyphenyl)quinolin-6-ol]
1500 | 76 | 20 | C#Cc1cc(-c2ccc(O)cc2)nc2ccc(O)cc12 [Cpd 14a, 4-Ethynyl-2-(4-hydroxyphenyl)quinolin-6-ol]
3410 | 32 | 106 | C#Cc1cc(-c2ccc(O)c(F)c2)nc2ccc(O)cc12 [Cpd 14b, 4-Ethynyl-2-(3-fluoro-4-hydroxyphenyl)quinolin-6-ol]
12000 | 195 | 62 | Oc1ccc2nc(-c3ccc(O)c(F)c3)cc(C#Cc3ccccc3)c2c1 [Cpd 15, 2-(3-Fluoro-4-hydroxyphenyl)-4-(phenylethynyl)quinolin-6-ol]
2940 | 211 | 14 | CC(=O)c1cc(-c2ccc(O)cc2)nc2ccc(O)cc12 [Cpd 16a, 4-Acetyl-2-(4-hydroxyphenyl)quinolin-6-ol]
3370 | – | – | CC(=O)c1cc(-c2ccc(O)c(F)c2)nc2ccc(O)cc12 [Cpd 16b, 4-Acetyl-2-(3-fluoro-4-hydroxyphenyl)quinolin-6-ol]
> 5000 | > 5000 | – | CC(O)c1cc(-c2ccc(O)cc2)nc2ccc(O)cc12 (stereo not drawn) [Cpd 17a, 4-(1-Hydroxyethyl)-2-(4-hydroxyphenyl)quinolin-6-ol]

SMILES | IC50 (ERα) [nM] | IC50 (ERβ) [nM] | α/β (ERβ)
CC(=O)Oc1ccc2nc(-c3ccc(OC(C)=O)c(F)c3)cc(Br)c2c1 [Cpd 7, 6-Acetoxy-4-bromo-2-(3-fluoro-4-acetoxyphenyl)quinoline] | > 5000 | 198 | >25
C[Si](C)(C)C#Cc1cc(-c2ccc(O)cc2)nc2ccc(O)cc12 [Cpd 13a, 2-(4-Hydroxyphenyl)-4-[(trimethylsilyl)ethynyl]quinolin-6-ol] | 1510 | 161 | 9
C[Si](C)(C)C#Cc1cc(-c2ccc(O)c(F)c2)nc2ccc(O)cc12 [Cpd 13b, 2-(3-Fluoro-4-hydroxyphenyl)-4-[(trimethylsilyl)ethynyl]quinolin-6-ol] | 1690 | 153 | 11
